Measured values published in patent publication US8865158B2, “Bacteriophages for reducing toxicity of bacteria” (priority 2012, dated 2014).
Converted amounts (≈) assume the structure as drawn. Where two headings read alike, the source gives them in different places.

Assays:
pathogenic E. coli = conditions: 36 pathogenic E. coli resistant to high levels of nalidixic acid; cited from earlier work
[1] = system: E. coli K-12 nalidixic acid-resistant mutants, Nal1-8; experiment: MIC determination to nalidixic acid, resistant mutants; format: cell-based; conditions: Escherichia coli
Description: Table 3 recites E. coli K-12 nalidixic acid-resistant mutants, Nal1-8, isolated on 50 μg/ml nalidixic acid. Substitutions in the GyrA protein are indicated, as well as the MIC to nalidixic acid.
(§1) Over twenty different overnight cultures of a total of ˜10^11 E. coli K-12 cells were inoculated on Luria-Bertani (LB)-agar plates containing 50 μg/ml streptomycin or 50 μg/ml nalidixic acid. Resistant mutants emerged, in both cases, at a median frequency of ˜1 in 10^9 CFU, and were picked from different cultures, to reduce the occurrence of sibling mutants. These bacteria were streaked on an agar plate containing the appropriate antibiotic. The rpsL or gyrA genes of resistant mutants emerging on the plate were PCR-amplified followed by DNA sequencing.
(§2) MIC determination was carried out by following the procedure described by Wiegand et al. (19). Briefly, bacterial cells were grown overnight at 32° C. in LB and diluted to 10^7-10^9 CFU/ml. The obtained suspension was serially diluted 10-fold for different spot concentrations, as indicated. Approximately 1 μl of bacterial suspension was then spotted onto selection plates containing different concentrations of either streptomycin or nalidixic acid along with the appropriate selection agent (chloramphenicol or tellurite), as indicated, using a 48-pin replicator. Plates were incubated overnight and photographed using MiniBis Pro (Bio-Imaging Systems). Photographs were digitally manipulated using GIMP2 software to adjust contrast. Liquid-based MIC determination assays were carried out by inoculating serial dilutions of an antibiotic in liquid LB broth with bacterial cultures (OD600 ˜0.05) in 96-well microtiter plates. Plates were incubated overnight at 32° C. and OD600 was then measured. The lowest antibiotic concentration at which the relative growth compared to the “no-drug” control was below 10% was determined as the MIC.

[2] = system: E. coli K-12 streptomycin-resistant mutants, Sm1-22; experiment: MIC determination to streptomycin, agar-plate assay, resistant mutants; format: cell-based; conditions: Escherichia coli
Description: Table 2 recites the E. coli K-12 streptomycin-resistant mutants, Sm1-22, isolated on 50 μg/ml streptomycin. Substitutions in the RpsL protein are indicated, as well as the MIC to streptomycin.
as §1, §2
Minimum inhibitory concentration (MICs) to streptomycin were determined by agar-plate assay (19). In this assay, ˜10^4 cells are replica-plated on plates with different drug concentrations. The lowest concentration at which there is no visible colony-formation is defined as the MIC. The MICs throughout the study were also measured in a complementary liquid-determination assay, giving a similar readout (not shown). Two representatives of the most common streptomycin-resistant strains obtained above were taken for further study: strains Sm6 and Sm13, harboring mutations in rpsL leading to substitutions of R86S and K88R, respectively. […] These strains were transformed with the plasmid pRpsL-wt, encoding the wt rpsL, or a control plasmid, pRpsLΔ4, encoding a mock gene (a defective rpsL with a 4-bp deletion that disrupts the reading frame after amino acid 26 of the RpsL protein; see FIG. 1) under a modified early E. coli promoter from phage T7. Transformed cells were selected on agar plates supplemented with 35 μg/ml chloramphenicol, as the plasmid encodes chloramphenicol acetyl transferase, which confers chloramphenicol resistance. The MICs of the transformed strains to streptomycin were then determined.

[3] = system: E. coli K-12 parental strain; experiment: MIC to streptomycin of the parental strain; format: cell-based; conditions: Escherichia coli
Description: MIC determination was carried out by following the procedure described by Wiegand et al. (19). Briefly, bacterial cells were grown overnight at 32° C. in LB and diluted to 10^7-10^9 CFU/ml. The obtained suspension was serially diluted 10-fold for different spot concentrations, as indicated. Approximately 1 μl of bacterial suspension was then spotted onto selection plates containing different concentrations of either streptomycin or nalidixic acid along with the appropriate selection agent (chloramphenicol or tellurite), as indicated, using a 48-pin replicator. Plates were incubated overnight and photographed using MiniBis Pro (Bio-Imaging Systems). […] Plates were incubated overnight at 32° C. and OD600 was then measured. […]
Minimum inhibitory concentration (MICs) to streptomycin were determined by agar-plate assay (19). […] The MICs throughout the study were also measured in a complementary liquid-determination assay, giving a similar readout (not shown). […] These strains were transformed with the plasmid pRpsL-wt, encoding the wt rpsL, or a control plasmid, pRpsLΔ4, encoding a mock gene (a defective rpsL with a 4-bp deletion that disrupts the reading frame after amino acid 26 of the RpsL protein; see FIG. 1) under a modified early E. coli promoter from phage T7. […] The MICs of the transformed strains to streptomycin were then determined.

E. coli = conditions: cited from earlier work

**Q.** For CCn1cc(C(=O)O)c(=O)c2ccc(C)nc21 [nalidixic acid], which “MIC of nalidixic acid” value (pathogenic E. coli) is on record?
**A.** ≥ 256 µg/mL

**Q.** And the MIC ([1]; read-out: MIC to nalidixic acid, mutant Nal1, GyrA S83L)?
**A.** ≥ 50 µg/mL

**Q.** And the MIC ([1]; read-out: MIC to nalidixic acid, mutant Nal2, GyrA S83L)?
**A.** ≥ 50 µg/mL

**Q.** And the MIC ([1]; read-out: MIC to nalidixic acid, mutant Nal3, GyrA S83L)?
**A.** ≥ 50 µg/mL

**Q.** And the MIC ([1]; read-out: MIC to nalidixic acid, mutant Nal4, GyrA D87G)?
**A.** 128 µg/mL (≈ 551 µM)

**Q.** What about the MIC ([1]; read-out: MIC to nalidixic acid, mutant Nal5, GyrA D87G) of the same compound?
**A.** 128 µg/mL (≈ 551 µM)

**Q.** What about the MIC ([1]; read-out: MIC to nalidixic acid, mutant Nal6, GyrA D87G) of the same compound?
**A.** 128 µg/mL (≈ 551 µM)

**Q.** And the MIC ([1]; read-out: MIC to nalidixic acid, mutant Nal7, GyrA D87G)?
**A.** 128 µg/mL (≈ 551 µM)

**Q.** And the MIC ([1]; read-out: MIC to nalidixic acid, mutant Nal8, GyrA D87G)?
**A.** 128 µg/mL (≈ 551 µM)

**Q.** For [H]/N=C(/N)N[C@H]1[C@H](O)[C@@H](O)[C@H](O[C@@H]2O[C@@H](C)[C@](O)(C=O)[C@H]2O[C@@H]2O[C@@H](CO)[C@H](O)[C@@H](O)[C@@H]2NC)[C@@H](N/C(N)=N\[H])[C@@H]1O [streptomycin], which MIC ([2]; read-out: MIC to streptomycin, mutant Sm1, RpsL P42S) is on record?
**A.** ≥ 50000 µg/mL

**Q.** What about the MIC ([2]; read-out: MIC to streptomycin, mutant Sm3, RpsL K43N) of the same compound?
**A.** ≥ 50000 µg/mL

**Q.** And the MIC ([2]; read-out: MIC to streptomycin, mutant Sm4, RpsL R54S)?
**A.** ≥ 50000 µg/mL

**Q.** What about the MIC ([2]; read-out: MIC to streptomycin, mutant Sm5, RpsL R86S) of the same compound?
**A.** ≥ 50000 µg/mL

**Q.** What about the MIC ([2]; read-out: MIC to streptomycin, mutant Sm6, RpsL R86S) of the same compound?
**A.** 100000 µg/mL (≈ 172000 µM)

**Q.** And the MIC ([2]; read-out: MIC to streptomycin, mutant Sm7, RpsL R86S)?
**A.** ≥ 50000 µg/mL

**Q.** And the MIC ([2]; read-out: MIC to streptomycin, mutant Sm8, RpsL R86S)?
**A.** ≥ 50000 µg/mL

**Q.** What about the MIC ([2]; read-out: MIC to streptomycin, mutant Sm9, RpsL R86S) of the same compound?
**A.** ≥ 50000 µg/mL

**Q.** And the MIC ([2]; read-out: MIC to streptomycin, mutant Sm10, RpsL R86S)?
**A.** ≥ 50000 µg/mL

**Q.** What about the MIC ([2]; read-out: MIC to streptomycin, mutant Sm11, RpsL K88E) of the same compound?
**A.** ≥ 50000 µg/mL

**Q.** What about the MIC ([2]; read-out: MIC to streptomycin, mutant Sm22, no substitution in RpsL) of the same compound?
**A.** ≥ 50000 µg/mL

**Q.** And the MIC ([2]; read-out: MIC to streptomycin, resistant mutant Sm6 (R86S) without sensitizing construct)?
**A.** 100 µg/mL

**Q.** And the MIC ([2]; read-out: MIC to streptomycin, resistant mutant Sm13 (K88R) without sensitizing construct)?
**A.** 200 µg/mL

**Q.** What about the MIC [3] of the same compound?
**A.** 1.56 µg/mL (≈ 2.68 µM)

**Q.** With O=[Te]([O-])[O-].[K+].[K+] [tellurite, potassium-tellurite (K2TeO3)] as the compound, how does the MIC of tellurite (E. coli; E. coli either having or lacking the chromosomal tehAB genes) read?
**A.** 2 µg/mL

**Q.** And the MIC of tellurite (E. coli; cells harboring an extrachromosomal tehAB with an active promoter)?
**A.** 128 µg/mL

**Q.** And the “Increase of MIC of tellurite upon tehAB expression from an active promoter” value (E. coli; tehAB expressed from an active promoter (e.g. T7))?
**A.** 50-100 fold
